One test has as its system human FDRG gene. Put plainly: FDRG gene expression by real-time RT-PCR in primary skeletal muscle cells. It is filed as cell-based. As to conditions: Veh = 1.00, same RNA sample. The method, then:
(§1) Reverse transcription (RT) and PCR were conducted in one step using “One-Step RT-PCR Master Mix Reagent” kit (Applied Biosystems, Foster City, Calif.) in ABI PRISM 7700 Sequence Detection System (Applied Biosystems). Each reaction was performed in a total volume of 25 μl containing 40 ng of total RNA. The reaction condition was: 48° C. for 30 minutes, 60° C. for 30 minutes, 94° C. for 5 minutes, followed by 40 cycles of 94° C. for 20 seconds and 60° C. for 1 minute. The primers for 18S ribosomal RNA were developed and provided by Applied Biosystems. The measurement of human 18S ribosomal RNA was used as an internal control for normalization of measuring and loading errors. PCR data were collected by Ct value (the cycle number at which logarithmic PCR plots cross a calculated threshold line) according to the manufacturer's guidelines and the value was used to determine the Δ^Ct (Ct of the target gene minus the Ct of 18S ribosomal RNA controls). Relative mRNA level was calculated using the equation 2^−ΔΔCt as described previously (Heid et al., 1996, Genome Res. 6:986-994).
The nucleotide sequence of the human FDRG gene (AX278133) is provided in SEQ ID NO: 1 and the sequence alignment between W30988 and FDRG gene is shown in FIG. 1. […] Quantitative real-time RT-PCR was performed to test whether gene expression of the human FDRG gene is regulated by PPARα. […]

Test [1] relates to Pa21 gene. Put plainly: Pa21 gene expression in SKM cells with siRNA-reduced PPARα expression. The format is cell-based, human. As to conditions: SKMU cells with reduced PPARα expression. The text has this:
(§2) SiRNA oligos specific to PPARα were designed and used to knock-down or reduce the expression level of PPARα in human SKMU cells following procedures known to those skilled in the art (Brummelkamp et al., 2002, Science, 296: 550-553). Four sets of siRNA oligo were originally designed using GenBank accession number S74349 (human peroxisome proliferator activated receptor alpha, cDNA; PPARα) as the template, and the software, Target Finder (Ambion, Austin, Tex.). […] The sequences for the two sets of siRNA correspond to 907 bp to 927 bp (SEQ ID NO: 21, 5′-[…] A) and 1106 bp to 1126 bp of the cDNA (SEQ ID NO: 22, 5′-[…] T) relative to the first nucleotide of the start codon. The oligos were chemically synthesized by Ambion Inc. (Austin, Tex.). The universal negative control siRNA oligo was purchased from Ambion.
Human primary skeletal muscle cells (hSKM, provided by Cambrex, Md.) were prepared the day before transfection at the density of 4.67×10^4 cells/per 60 mm dish (about 20% confluence). The cells were cultured at 37° C., 5% CO2 for 24 hrs with antibiotics-free SKGM medium (Cambrex, Md.). […]
(§3) Again, total RNA was isolated from the cells and real-time PCR was performed and the expression levels of target genes of interest, such as Pa9, 13 and 21, were quantitatively measured using the RT-PCR technique described in Example 1.

Another test has as its system Pa13 gene. Put plainly: Pa13 gene expression by real-time RT-PCR in primary skeletal muscle cells. The format is cell-based, human. As to conditions: about 18-20 hours, vehicle control = 100.
Description: (§4) Human hepatocyte HuH7 cells, which are epithelial cells of liver, were obtained from Japan Health Science Research Resources Bank (Osaka, Japan). Human primary adipocytes, which are connective tissue cells specialized for the synthesis and storage of fat, were obtained from Zen-Bio, Inc (Research Triangle Park, NC). Human primary skeletal muscle cells (SKMC) were obtained from Cambrex Bio Science (Walkersville, Md.). PPARα agonists, Wy14643 (Agatha, et al, 2000, Archives of Biochemistry and Biophysics 380:353-359) and fenofibrates were obtained from Cayman Chemical (Ann Arbor, Mich.) and Sigma (St Louis, Mo.), respectively.
(§5) Human HuH7 cells were cultured in Dulbecco's Modified Eagle Medium with 10% Fetal Bovine Serum (Gibco, N.Y.). Cells were treated with charcoal-stripped, delipidated calf serum (5%) (Sigma, St Louis, Mo.) for about 4-18 hours. Then, cells were treated with different concentrations of PPARα agonist (Wy14643 or fenofibrates) for about 20-24 h. Human SKM cells were cultured in Skeletal Muscle Growth Medium (Cambrex Bio Science, Walkersville, Md.), and were treated with different concentrations of PPARα agonist (Wy14643 or fenofibrates) for about 18-20 hours. Human primary adipocytes were cultured in Preadipocyte Medium, (Cat #PM—1, Zen-Bio, Inc., Research Triangle Park, NC), and were treated with different concentrations of PPARα agonist (Wy14643 or fenofibrates) for about 18-20 hours.
(§6) Total RNA was purified from cultured cells following the protocol provided by the manufacturer (Trizon method, Invitrogen Inc. Ca). The polymerase chain reaction (PCR) primers and fluorescent probes (TagMan probes) for Pa9, Pa13, and Pa21 were designed from GenBank sequences of accession numbers W30988, AB000584, and NM_080725, respectively. The primers and probes were designed using the software PrimerDesign (Applied Biosystems, Foster City, Calif.). The PCR primers for Pa9 were SEQ ID NO: 7, (5-[…]) and SEQ ID NO: 8 (5-[…]). […] The PCR primers for Pa13 were SEQ ID NO: 10 (5-[…], T) and SEQ ID NO: 11 (5-[…] T). […] The PCR primers for Pa21 were SEQ ID NO: 13 (5-[…] C) and SEQ ID NO: 14 (5-[…]). […] All primers and probes were synthesized by Keystone Labs (Camarillo, Calif.).
as §1
Background: Quantitative PCR measures a nucleic acid by following its amplification.

Another test deals with Pa9 gene. Description: Pa9 gene expression in SKM cells with or without siRNA-reduced PPARα expression. It is filed as cell-based, human.
Description: as §2
Human primary skeletal muscle cells (hSKM, provided by Cambrex, Md.) were prepared the day before transfection at the density of 4.67×10^4 cells/per 60 mm dish (about 20% confluence). The cells were cultured at 37° C., 5% CO2 for 24 hrs with antibiotics-free SKGM medium (Cambrex, Md.).
Transfection of siRNAs into the cultured cells was carried out following the manufacturer's instruction. Briefly, before the transfection, siPORT Amine (Ambion, Tex.) was first diluted with SKGM medium free of antibiotics and serum (10 μl siPORT/ml), followed by adding siRNA (50 nM) into the mixture. SKM cells (prepared in advance in multiple dishes) were transfected with 2 ml of the mixture for 4 hrs. Additional 8 ml of fresh SKGM medium (without antibiotics) were added into each dish to maximize cell growth and reduce potential cytotoxicity caused by the transfection reagent. As controls, the cells were also transfected with siPORT Amine alone or siPORT Amine plus universal negative control siRNA.
as §3

For test [2], the system named is Pa21 gene. Description: Pa21 gene expression by real-time RT-PCR in primary skeletal muscle cells. The format is cell-based, human. As to conditions: about 18-20 hours, vehicle control = 100.
Description: as §4, §5, §6, §1

The results in this text go back to patent US20050191668A1, “Methods of using peroxisome proliferator-activated receptor alpha target genes” (priority 2004, published 2005).

For `Cc1cccc(Nc2cc(Cl)nc(SCC(=O)O)n2)c1C` [Wy14643], the “FDRG gene expression, Fold of Induction” value is listed as 4.37 fold with human FDRG gene (30 uM); 7.8 fold in the test with human FDRG gene (100 uM); 7.80 fold in the test on human FDRG gene (100 uM, listed as WY14643). Besides, the “induction of Pa21 gene expression (FIG. 7)” value with Pa21 gene [1] was “no detectable induction”. Further, the “Pa13 (N26311) gene expression, Percentage ± SE (%)” value was determined as 36.4 ± 6.4% in the test with Pa13 gene (3 uM); 45.5 ± 10% with Pa13 gene (10 uM); 136.4 ± 38.7% in the test on Pa13 gene (30 uM); 290.9 ± 54.1% in the test with Pa13 gene (100 uM); 1672.7 ± 32% in the test on Pa13 gene (300 uM). In addition, the “increase of Pa9 gene expression” value in the test with Pa9 gene (SKM cells with reduced gene expression of PPARα (siRNA), 16 hrs treatment) was 2.35 fold. Also, the “induction of Pa9 gene expression” value with Pa9 gene (SKM cells without reduced expression level of PPARα, 16 hrs treatment) is listed as 33.48 fold. Also, the “induction of Pa9 gene expression (FIG. 5)” value in the test on Pa9 gene (SKMU cells with reduced PPARα expression) is reported as “decreased induction”. Besides, the “Pa21 (H4960) gene expression, Percentage ± SE (%)” value was 130 ± 23.8% in the test on Pa21 gene [2] (3 uM); 200 ± 48.5% with Pa21 gene [2] (10 uM); 310 ± 1.9% with Pa21 gene [2] (30 uM); 560 ± 16.6% in the test with Pa21 gene [2] (100 uM); 2250 ± 11.7% in the test with Pa21 gene [2] (300 uM).
